± gives the expanded uncertainty stated by the source.
Assay: xn = mol fraction of the nth substance listed
Settings: 100 kPa, Liquid; for speed of sound: Frequency=3 MHz, Single path-length method; for mass density: Vibrating tube method

OCCCCO [1,4-butanediol] + CCCC(=O)OCC
Settings | mass density [kg/m3] | speed of sound [m/s]
298.15 K, x2 = 0 | 1012.8 ± 2 | 1601.9 ± 1.1
298.15 K, x2 = 0.1009 | 998.83 ± 2 | 1558.5 ± 1.1
298.15 K, x2 = 0.1986 | 985.3 ± 2 | 1516.5 ± 1.1
298.15 K, x2 = 0.3254 | 967.74 ± 2 | 1461.9 ± 1.1
298.15 K, x2 = 0.4231 | 954.2 ± 2 | 1419.9 ± 1.1
298.15 K, x2 = 0.5008 | 943.44 ± 2 | 1386.5 ± 1.1
298.15 K, x2 = 0.5895 | 931.16 ± 2 | 1348.4 ± 1
298.15 K, x2 = 0.7128 | 914.08 ± 2 | 1295.3 ± 1
298.15 K, x2 = 0.8015 | 901.8 ± 2 | 1257.2 ± 1
298.15 K, x2 = 0.9105 | 886.7 ± 2 | 1210.3 ± 1
303.15 K, x2 = 0 | 1009.77 ± 2 | 1590.3 ± 1.1
303.15 K, x2 = 0.1009 | 995.55 ± 2 | 1545.9 ± 1.1
303.15 K, x2 = 0.1986 | 981.78 ± 2 | 1503 ± 1.1
303.15 K, x2 = 0.3254 | 963.91 ± 2 | 1447.4 ± 1.1
303.15 K, x2 = 0.4231 | 950.15 ± 2 | 1404.4 ± 1.1
303.15 K, x2 = 0.5008 | 939.2 ± 2 | 1370.3 ± 1.1
303.15 K, x2 = 0.5895 | 926.7 ± 2 | 1331.4 ± 1
303.15 K, x2 = 0.7128 | 909.32 ± 2 | 1277.2 ± 1
303.15 K, x2 = 0.8015 | 896.82 ± 2 | 1238.3 ± 1
303.15 K, x2 = 0.9105 | 881.46 ± 2 | 1190.4 ± 1
308.15 K, x2 = 0 | 1006.74 ± 2 | 1578.6 ± 1.1
308.15 K, x2 = 0.1009 | 992.28 ± 2 | 1533.4 ± 1.1
308.15 K, x2 = 0.1986 | 978.27 ± 2 | 1489.5 ± 1.1
308.15 K, x2 = 0.3254 | 960.1 ± 2 | 1432.7 ± 1.1
308.15 K, x2 = 0.4231 | 946.09 ± 2 | 1388.9 ± 1.1
308.15 K, x2 = 0.5008 | 934.96 ± 2 | 1354 ± 1.1
308.15 K, x2 = 0.5895 | 922.24 ± 2 | 1314.2 ± 1
308.15 K, x2 = 0.7128 | 904.57 ± 2 | 1258.9 ± 1
308.15 K, x2 = 0.8015 | 891.85 ± 2 | 1219.2 ± 1
308.15 K, x2 = 0.9105 | 876.23 ± 2 | 1170.3 ± 1
313.15 K, x2 = 0 | 1003.7 ± 2 | 1567 ± 1.1
313.15 K, x2 = 0.1009 | 988.99 ± 2 | 1520.7 ± 1.1
313.15 K, x2 = 0.1986 | 974.75 ± 2 | 1476 ± 1.1
313.15 K, x2 = 0.3254 | 956.27 ± 2 | 1417.9 ± 1.1
313.15 K, x2 = 0.4231 | 942.03 ± 2 | 1373.2 ± 1.1
313.15 K, x2 = 0.5008 | 930.7 ± 2 | 1337.6 ± 1.1
313.15 K, x2 = 0.5895 | 917.77 ± 2 | 1297 ± 1
313.15 K, x2 = 0.7128 | 899.8 ± 2 | 1240.5 ± 1
313.15 K, x2 = 0.8015 | 886.87 ± 2 | 1199.9 ± 1
313.15 K, x2 = 0.9105 | 870.99 ± 2 | 1150 ± 1
318.15 K, x2 = 0 | 1000.67 ± 2 | 1555.3 ± 1.1
318.15 K, x2 = 0.1009 | 985.72 ± 2 | 1508.1 ± 1.1
318.15 K, x2 = 0.1986 | 971.24 ± 2 | 1462.5 ± 1.1
318.15 K, x2 = 0.3254 | 952.45 ± 2 | 1403.2 ± 1.1
318.15 K, x2 = 0.4231 | 937.98 ± 2 | 1357.6 ± 1.1
318.15 K, x2 = 0.5008 | 926.46 ± 2 | 1321.3 ± 1.1
318.15 K, x2 = 0.5895 | 913.32 ± 2 | 1279.8 ± 1
318.15 K, x2 = 0.7128 | 895.05 ± 2 | 1222.2 ± 1
318.15 K, x2 = 0.8015 | 881.9 ± 2 | 1180.7 ± 1
318.15 K, x2 = 0.9105 | 865.75 ± 2 | 1129.8 ± 1
323.15 K, x2 = 0 | 997.63 ± 2 | 1543.7 ± 1.1
323.15 K, x2 = 0.1009 | 982.43 ± 2 | 1495.6 ± 1.1
323.15 K, x2 = 0.1986 | 967.72 ± 2 | 1449 ± 1.1
323.15 K, x2 = 0.3254 | 948.62 ± 2 | 1388.6 ± 1.1
323.15 K, x2 = 0.4231 | 933.91 ± 2 | 1342 ± 1.1
323.15 K, x2 = 0.5008 | 922.21 ± 2 | 1305 ± 1.1
323.15 K, x2 = 0.5895 | 908.85 ± 2 | 1262.7 ± 1
323.15 K, x2 = 0.7128 | 890.28 ± 2 | 1204 ± 1
323.15 K, x2 = 0.8015 | 876.92 ± 2 | 1161.7 ± 1
323.15 K, x2 = 0.9105 | 860.51 ± 2 | 1109.8 ± 1
